From US20080261994A1, “CYCLOPROPANE COMPOUNDS AND PHARMACEUTICAL USE THEREOF” (Japan Tobacco Inc., priority 2003, published 2008)
Where two headings read alike, the source gives them in different places.

Columns and labels:
Assay type in all cases: biochemical
Recombinant Human MMP-13 = biological target: T1, Recombinant Human MMP-13 (Homo sapiens, UniProt P45452); assay: MMP-13 inhibitory activity (MMP-13 specific fluorescent substrate with quencher)
T1 construct: purchased R&D systems 511-MM
Procedure, shortened: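 Recombinant human MMP-13 with test compound, reaction started with quenched fluorogenic peptide 7-MCA-Pro-CHA-Gly-NVal-His-Ala-DPA in Tris-HCl buffer, 1 h at 25 °C, stopped with acetic acid. Fluorescence at Ex 325/Em 405 nm; % inhibition versus enzyme-free and inhibitor-free wells, reported as IC50 (μM).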

aggrecanase-1 = biological target: T2, aggrecanase-1 (Homo sapiens, UniProt O75173); assay: Aggrecanase-1 inhibitory action (Particle Assay, GAG release from aggrecan-containing polyacrylamide particles)
T2 sequence (O75173 213-837): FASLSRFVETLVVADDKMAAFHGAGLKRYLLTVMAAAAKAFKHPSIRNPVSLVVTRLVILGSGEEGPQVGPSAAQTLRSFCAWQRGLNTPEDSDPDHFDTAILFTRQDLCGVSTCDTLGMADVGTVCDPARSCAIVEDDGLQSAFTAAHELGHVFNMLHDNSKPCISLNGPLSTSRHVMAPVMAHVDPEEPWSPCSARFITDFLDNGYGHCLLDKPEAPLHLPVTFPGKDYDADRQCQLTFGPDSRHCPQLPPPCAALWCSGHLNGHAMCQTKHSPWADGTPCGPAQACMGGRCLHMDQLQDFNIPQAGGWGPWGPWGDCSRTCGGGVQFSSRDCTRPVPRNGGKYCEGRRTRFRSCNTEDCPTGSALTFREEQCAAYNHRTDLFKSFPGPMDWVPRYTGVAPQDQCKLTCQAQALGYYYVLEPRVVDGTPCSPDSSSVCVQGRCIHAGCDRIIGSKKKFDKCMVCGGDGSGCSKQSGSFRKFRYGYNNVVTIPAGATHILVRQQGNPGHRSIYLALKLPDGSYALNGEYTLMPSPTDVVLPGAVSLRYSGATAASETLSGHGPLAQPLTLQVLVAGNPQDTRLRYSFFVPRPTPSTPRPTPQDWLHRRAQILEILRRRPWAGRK
Procedure, shortened: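 Enzyme and compound incubated with aggrecan-containing polyacrylamide particles in Tris-HCl buffer at 37° C for 15 h. Released GAG in supernatant measured with 1,9-dimethylmethylene blue at 595 nm against chondroitin sulfate standard; % inhibition from enzyme-free and inhibitor-free wells, reported as TC50 (μM).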

MMP-1 = biological target: T3, MMP-1 (Homo sapiens, UniProt P03956); assay: MMP-1 inhibitory action (Type I collagen Activity Measurement kit, FITC-labeled collagen type I)
T3 sequence (P03956 100-469): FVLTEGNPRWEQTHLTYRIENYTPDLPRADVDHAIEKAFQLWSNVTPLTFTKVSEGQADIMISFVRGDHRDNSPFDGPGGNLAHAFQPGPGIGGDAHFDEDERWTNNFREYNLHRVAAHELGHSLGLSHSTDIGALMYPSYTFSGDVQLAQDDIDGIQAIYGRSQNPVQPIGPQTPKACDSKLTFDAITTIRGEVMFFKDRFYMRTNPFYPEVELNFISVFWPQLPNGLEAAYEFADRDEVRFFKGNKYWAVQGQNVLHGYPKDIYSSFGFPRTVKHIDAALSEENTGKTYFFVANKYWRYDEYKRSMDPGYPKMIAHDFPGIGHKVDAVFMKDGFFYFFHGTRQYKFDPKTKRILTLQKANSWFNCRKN

[1] = Experimental Example 3, read-out: IC50 MMP13
[2] = Experimental Example 1, read-out: IC50 AG1
[3] = Experimental Example 2, read-out: IC50 MMP1
[4] = Recombinant Human MMP-13, fluorescent substrate, 25° C. for 1 h, read-out: IC50 MMP13 (Experimental Example 3)
[5] = aggrecanase-1 inhibitory action, read-out: IC50 AG1 (Experimental Example 1)
[6] = MMP-1 inhibitory action, FITC-labeled collagen type I, 37° C. for 3 hr, read-out: IC50 MMP1 (Experimental Example 2)

| Compound | IC50 (Recombinant Human MMP-13; [1]) | IC50 (aggrecanase-1; [2]) | IC50 (MMP-1; [3]) | IC50 (Recombinant Human MMP-13; [4]) | IC50 (aggrecanase-1; [5]) | IC50 (MMP-1; [6]) |
| --- | --- | --- | --- | --- | --- | --- |
| CN1CCC2C(c3ccccc31)C2(NS(=O)(=O)c1ccc(-c2ccc(Cl)cc2)s1)C(=O)O (stereo not drawn) [Example 2-430] | < 100 nM | < 100 nM | ≥ 1000 nM |  |  |  |
| CC1[C@H](c2ccccc2)[C@]1(NS(=O)(=O)c1ccc(OCc2ccc(Cl)cc2Cl)cc1)C(=O)NO (stereo partly drawn) [Example 2-325] | ≥ 1000 nM | ≥ 1000 nM | ≥ 10000 nM |  |  |  |
| O=C(O)C1(NS(=O)(=O)c2ccc(-c3cc(C(F)(F)F)on3)s2)CC1(CN1CCOCC1)c1ccccc1 (stereo not drawn) [Example 2-322] | < 1000 nM | < 100 nM | ≥ 1000 nM |  |  |  |
| CC1[C@H](c2ccccc2)[C@]1(NS(=O)(=O)N1CCC(OCc2ccc(Cl)cc2Cl)C1)C(=O)O (stereo partly drawn) [Example 2-553] | ≥ 1000 nM | ≥ 1000 nM | ≥ 1000 nM |  |  |  |
| O=C(O)[C@]1(NS(=O)(=O)c2ccc(-c3noc(C(F)(F)F)n3)s2)C[C@@H]1c1ccccc1 [Example 2-44] |  |  |  | ≥ 1000 nM | ≥ 1000 nM | ≥ 10000 nM |
| O=C(OCCCc1ccccc1C1CC1(NS(=O)(=O)c1ccc(-c2cc(C(F)(F)F)on2)s1)C(=O)O)N1CC[C@@H](O)C1 (stereo partly drawn) [Example 2-255] |  |  |  | < 100 nM | < 100 nM | ≥ 1000 nM |
| CN(C)c1cccc([C@H]2C[C@@]2(NS(=O)(=O)c2ccc(-c3ccc(Cl)cc3)s2)C(=O)O)c1 [Example 2-176] |  |  |  | < 100 nM | < 100 nM | ≥ 10000 nM |
| O=C(O)[C@]1(NS(=O)(=O)c2ccc(-c3cc(C(F)F)sn3)s2)C[C@@H]1c1ccccc1 [Example 2-119] |  |  |  | < 100 nM | < 100 nM | < 1000 nM |
| CC1(c2ccc(F)cc2)CC1(NS(=O)(=O)c1ccc(-c2cc(C(F)(F)F)on2)s1)C(=O)O (stereo not drawn) [Example 2-339] | < 1000 nM | < 100 nM | ≥ 1000 nM |  |  |  |
| CC(C)SCC1(c2ccccc2)CC1(NS(=O)(=O)c1ccc(-c2ccc(Cl)cc2)s1)C(=O)O (stereo not drawn) [Example 2-349] | < 1000 nM | < 100 nM | ≥ 10000 nM |  |  |  |
| O=C(O)[C@@]1(NS(=O)(=O)c2ccc(-c3ccc(Cl)cc3)s2)C[C@H]1c1ccccc1Br [Example 2-168] |  |  |  | ≥ 1000 nM | < 1000 nM | ≥ 10000 nM |
| CN1CCN(c2ccc(C3CC3(NS(=O)(=O)c3ccc(-c4ccc(Cl)cc4)s3)C(=O)O)cc2)CC1 (stereo not drawn) [Example 2-246] |  |  |  | < 1000 nM | ≥ 1000 nM | ≥ 10000 nM |
| NC(=O)OCCC1(c2ccccc2)CC1(NS(=O)(=O)c1ccc(-c2ccc(Cl)cc2)s1)C(=O)O (stereo not drawn) [Example 2-295] | < 100 nM | < 100 nM | ≥ 1000 nM |  |  |  |
| O=C(O)C1(NS(=O)(=O)c2ccc(-c3cc(C(F)(F)F)on3)s2)CC1(CN1CCCC1)c1ccccc1 (stereo not drawn) [Example 2-329] | ≥ 1000 nM | ≥ 1000 nM | ≥ 10000 nM |  |  |  |
| CC1CCN(c2ccc(S(=O)(=O)N[C@@]3(C(=O)O)C[C@@H]3c3ccccc3)s2)CC1 [Example 2-256] |  |  |  | ≥ 10000 nM | ≥ 1000 nM | ≥ 10000 nM |
| NCC1(c2ccccc2)CC1(NS(=O)(=O)c1ccc(-c2ccc(Cl)cc2)s1)C(=O)O (stereo not drawn) [Example 2-361] | ≥ 1000 nM | ≥ 1000 nM | ≥ 10000 nM |  |  |  |
| O=C(O)[C@]1(NS(=O)(=O)c2ccc(-c3ccc(Cl)cn3)s2)C[C@@H]1c1ccccc1 [Example 1-131] |  |  |  | < 100 nM | < 100 nM | ≥ 1000 nM |
| CC1[C@H](c2ccccc2)[C@]1(NS(=O)(=O)c1ccc(-c2cc(C(F)F)no2)s1)C(=O)O (stereo partly drawn) [Example 2-354] | < 1000 nM | < 100 nM | ≥ 1000 nM |  |  |  |
| O=C(O)C1(NS(=O)(=O)c2ccc(-c3cc(C(F)(F)F)on3)s2)C2CCC(O)c3ccccc3C21 (stereo not drawn) [Example 2-438] | < 100 nM | < 100 nM | < 1000 nM |  |  |  |

| Compound | IC50 (Recombinant Human MMP-13; [1]) | IC50 (aggrecanase-1; [2]) | IC50 (MMP-1; [3]) | IC50 (Recombinant Human MMP-13; [4]) | IC50 (aggrecanase-1; [5]) | IC50 (MMP-1; [6]) |
| --- | --- | --- | --- | --- | --- | --- |
| C[C@]1(c2ccccc2)C[C@@]1(NS(=O)(=O)c1ccc(-c2cc(C(F)F)on2)s1)C(=O)O [Example 2-382] | < 1000 nM | < 100 nM | < 1000 nM |  |  |  |
| O=C(O)C1(NS(=O)(=O)N2CC(Oc3ccc(Cl)cc3)C2)CC1c1ccccc1 (stereo not drawn) [Example 2-15] |  |  |  | ≥ 1000 nM | ≥ 10000 nM | ≥ 10000 nM |
| CN1CCN(C(=O)Cc2cccc(C3CC3(NS(=O)(=O)c3ccc(-c4cc(C(F)(F)F)on4)s3)C(=O)O)c2)CC1 (stereo not drawn) [Example 2-221] |  |  |  | < 100 nM | < 1000 nM | ≥ 1000 nM |
| C[C@]1(c2ccccc2)C[C@@]1(NS(=O)(=O)c1ccc(-c2ccc(Cl)cc2Cl)s1)C(=O)O [Example 2-566] | ≥ 1000 nM | < 1000 nM | ≥ 1000 nM |  |  |  |
| CC1[C@H](c2ccccc2)[C@]1(NS(=O)(=O)N1CCN(c2ccc(Cl)cn2)CC1)C(=O)O (stereo partly drawn) [Example 2-457] | < 100 nM | < 100 nM | ≥ 1000 nM |  |  |  |
| O=C(Nc1cccc(C2CC2(NS(=O)(=O)c2ccc(-c3ccc(Cl)cc3)cc2)C(=O)O)c1)c1cccnc1 (stereo not drawn) [Example 1-64] |  |  |  | < 100 nM | < 1000 nM | ≥ 1000 nM |
| O=C(NCC1(c2ccccc2)CC1(NS(=O)(=O)c1ccc(-c2ccc(Cl)cc2)s1)C(=O)O)c1ccccn1 (stereo not drawn) [Example 2-368] | < 1000 nM | < 1000 nM | ≥ 1000 nM |  |  |  |
| Cc1cc(N2CCN(S(=O)(=O)N[C@@]3(C(=O)O)C(C)[C@@H]3c3ccccc3)CC2=O)no1 (stereo partly drawn) [Example 2-476] | ≥ 10000 nM | ≥ 1000 nM | ≥ 10000 nM |  |  |  |
| C[C@]1(c2ccccc2)C[C@@]1(NS(=O)(=O)c1ccc(-c2cc(C(F)(F)C(F)(F)F)on2)s1)C(=O)O [Example 2-112] |  |  |  | ≥ 1000 nM | < 1000 nM | ≥ 10000 nM |
| COCCOCC1(c2ccccc2)CC1(NS(=O)(=O)c1ccc(-c2ccc(Cl)cc2)s1)C(=O)O (stereo not drawn) [Example 2-429] | < 1000 nM | < 1000 nM | ≥ 1000 nM |  |  |  |
| Cc1nnc(N2CCN(S(=O)(=O)N[C@@]3(C(=O)O)C(C)[C@@H]3c3ccccc3)CC2)s1 (stereo partly drawn) [Example 2-465] | ≥ 10000 nM | ≥ 1000 nM | ≥ 10000 nM |  |  |  |
| O=C(O)[C@@]1(NS(=O)(=O)c2ccc3c(c2)Cc2cc(F)ccc2-3)C[C@H]1c1ccccc1 [Example 2-244] |  |  |  | < 1000 nM | < 1000 nM | ≥ 10000 nM |
| CN(c1ccccc1)c1ccc(S(=O)(=O)N[C@@]2(C(=O)O)C[C@]2(C)c2ccccc2)s1 [Example 2-515] | ≥ 1000 nM | ≥ 1000 nM | ≥ 1000 nM |  |  |  |
| O=C(NO)[C@]1(NS(=O)(=O)c2ccc(OCc3ccc(Cl)cc3Cl)cc2)[C@@H]2c3ccccc3C[C@@H]21 (relative stereo) [Example 2-13, (1R*,1aS*,6aS*)-1-[4-(2,4-dichloro-benzyloxy)-benzenesulfonylamino]-1,1a,6,6a-tetrahydro-cyclopropa[a]inden-1-carboxylic acid hydroxyamide] |  |  |  | < 100 nM | < 100 nM | ≥ 10000 nM |
| O=C(Cc1cccc(C2CC2(NS(=O)(=O)c2ccc(-c3cc(C(F)(F)F)on3)s2)C(=O)O)c1)N[C@H]1CC[C@H](O)CC1 (stereo partly drawn) [Example 2-233] |  |  |  | < 100 nM | < 1000 nM | ≥ 1000 nM |
| O=C(O)[C@]1(NS(=O)(=O)c2ccc(-c3cc(-c4ccccc4)on3)s2)C[C@@H]1c1ccccc1 [Example 2-114] |  |  |  | < 100 nM | ≥ 1000 nM | < 1000 nM |
| CC1[C@H](c2ccccc2)[C@]1(NS(=O)(=O)c1ccc(-n2cc(Br)cn2)s1)C(=O)O (stereo partly drawn) [Example 2-494] | < 100 nM | < 100 nM | < 100 nM |  |  |  |
| COC(=O)Nc1cccc(C2CC2(NS(=O)(=O)c2ccc(-c3ccc(Cl)cc3)cc2)C(=O)O)c1 (stereo not drawn) [Example 1-41] |  |  |  | < 100 nM | < 1000 nM | ≥ 1000 nM |
| O=C(O)[C@]1(NS(=O)(=O)c2ccc(-c3cc(C(F)F)on3)s2)C[C@@H]1c1ccccc1 [Example 2-99] |  |  |  | < 1000 nM | < 100 nM | < 1000 nM |
